Experimental data as given in patent publication US8409833B2 (Hokko Chemical Industry Co., Ltd., priority 2003, dated 2013).

System: NAD^+-independent myo-inositol 2-dehydrogenase
Assay: NAD^+-independent myo-inositol 2-dehydrogenase activity (oxidized DCIP, absorbance at 600 nm): substrate specificity, Km, heavy metal inhibition
Settings: for Km: enzyme derived from Acetobacter sp. AB10253, sugar concentration varied; for reaction of the enzyme with the sugar: sugar at a final concentration of 50 mM
Protocol: The enzyme activity of each fraction was measured by a standard method: that is, the change in absorbance at 600 nm of 1 ml of a solution containing 50 μl of the protein solution, 100 mM phosphate buffer (pH 5.0), 5 mg of myo-inositol, and 0.4 mg of 2,4-dichloroindophenol (oxidized DCIP) was calculated into a reaction rate, and an activity to oxidize 1 μmol of myo-inositol per minute was defined as one unit.
For measurement of the optimum pH, the enzyme activity was measured while changing a buffer and pH value. As the buffer, there were used 100 mM phosphate buffer (pH 3 to 8), 100 mM Tris buffer (pH 7 to 8), and 100 mM carbonate buffer (pH 8 to 11).
The substrate specificity of the target enzyme was determined by measuring the enzyme activity in a solution containing various sugars instead of myo-inositol at a final concentration of 50 mM.

Compound | Km | reaction of the enzyme with the sugar | further results
OC1C(O)C(O)C(O)C(O)C1O [D-chiro-inositol] | 8.8 mM |  | 
[Sn+2] [Sn^2+ ion, reference compound] |  |  | enzyme activity relative to the activity in the absence of the ion (1 mM ion, 100 mM phosphate buffer (pH 5.0)): ≤ 1%
OC1C(O)C(O)C(O)C(O)C1O (stereo not drawn) [allo-inositol] |  | not to react | 
OC1C(O)C(O)C(O)C(O)C1O (stereo not drawn) [muco-inositol] | 14.5 mM |  | 
OC1C(O)[C@H](O)[C@H](O)C(O)[C@@H]1O (stereo partly drawn) [myo-inositol] | 20 mM |  | 
OC1C(O)[C@H](O)[C@H](O)C(O)[C@H]1O (stereo partly drawn) [scyllo-inositol] |  | not to react | 
